Laboratory results from PMC9825622, “Leveraging molecular structure and bioactivity with chemical language models for de novo drug design” (Nature Communications, 2023).

Columns and labels:
[1] = molecular target: T1, PI3Kγ (Homo sapiens, UniProt P48736); assay: KINOMEscan biochemical kinase binding assay (Kd determination); details: for experimentally determined binding constant Kd: Fig. 4, commercially available compounds, absence of a value (−) = no observed binding; for Kd: average of N = 2 independent experiments
T1 construct: purchased Eurofins Discovery (KINOMEscan, fee-for-service)
Experimental: PI3Kγ binding assays were performed by Eurofins Discovery (https://www.eurofinsdiscoveryservices.com) on a fee-for-service basis. KINOMEscan™ was used to determine the dissociation constant Kd. […] Competition of the test compound with the immobilized ligand was measured via quantitative PCR (qPCR) of the DNA tag of DNA-tagged kinase. An 11-point three-fold serial dilution of each test compound was prepared in 100% DMSO at 100× final test concentration and subsequently diluted to 1× in the assay (final DMSO concentration = 1%). Dissociation constants were estimated with a standard dose-response curve using the Hill equation (Eq. 4)[71]:4 Response=Background+Signal−Background/1+KdHillslope/Dose^HillSlope, where the Hill slope was set to −1. Curves were fitted using a nonlinear least square fit with the Levenberg–Marquardt algorithm[72],[73].

[2] = test system: PI3Kδ; details: cited from earlier work
[3] = test system: HD-MB03 medulloblastoma cells; assay: CellTiter-Glo cell viability/proliferation assay; type: cell-based, human; details: for IC50: Homo sapiens, HD-MB03, 72 h, 72 h exposure, medium supplemented with FBS, read-out: IC50 (CellTiter-Glo viability, best-fit)
Experimental: HD-MBO3 Group 3 medulloblastoma cells were cultured in RPMI medium supplemented with 10% fetal bovine serum (FBS, both from Sigma-Aldrich, St. Louis, USA), 1% Penicillin-Streptomycin, and 1% GlutaMAX (both from Gibco/Thermo Fisher Scientific, Waltham, USA). The cells were maintained at 37 °C in a humidified atmosphere containing 5% CO2. […] DMSO was used as solvent control in all assays.
Cell viability was determined using CellTiter-Glo® 2.0 Cell Viability Assay (G9242, Promega, Madison, USA). About 500 cells per 20 μl were seeded in a flat bottom 384-well plate (781098, Greiner bio-one, Kremsmünster, Austria). Increasing concentrations of compounds were deposited on cells using an HP Digital Drug Dispenser (Hewlett-Packard, Palo Alto, USA) with DMSO total volume normalization. After 72 h, the CellTiter-Glo reagent was added (volume/volume) following the manufacturer’s instructions. Luminescence representing the number of viable cells was quantified with a Cytation 3 imaging reader (BioTek, Winooski, USA). […] Prism 9 software (GraphPad Software, San Diego, CA, USA) was used to calculate best-fit values of inhibitor vs. normalized response and to predict IC50.

[4] = test system: PI3Kα; details: cited from earlier work

T1 sequence (P48736 whole entry): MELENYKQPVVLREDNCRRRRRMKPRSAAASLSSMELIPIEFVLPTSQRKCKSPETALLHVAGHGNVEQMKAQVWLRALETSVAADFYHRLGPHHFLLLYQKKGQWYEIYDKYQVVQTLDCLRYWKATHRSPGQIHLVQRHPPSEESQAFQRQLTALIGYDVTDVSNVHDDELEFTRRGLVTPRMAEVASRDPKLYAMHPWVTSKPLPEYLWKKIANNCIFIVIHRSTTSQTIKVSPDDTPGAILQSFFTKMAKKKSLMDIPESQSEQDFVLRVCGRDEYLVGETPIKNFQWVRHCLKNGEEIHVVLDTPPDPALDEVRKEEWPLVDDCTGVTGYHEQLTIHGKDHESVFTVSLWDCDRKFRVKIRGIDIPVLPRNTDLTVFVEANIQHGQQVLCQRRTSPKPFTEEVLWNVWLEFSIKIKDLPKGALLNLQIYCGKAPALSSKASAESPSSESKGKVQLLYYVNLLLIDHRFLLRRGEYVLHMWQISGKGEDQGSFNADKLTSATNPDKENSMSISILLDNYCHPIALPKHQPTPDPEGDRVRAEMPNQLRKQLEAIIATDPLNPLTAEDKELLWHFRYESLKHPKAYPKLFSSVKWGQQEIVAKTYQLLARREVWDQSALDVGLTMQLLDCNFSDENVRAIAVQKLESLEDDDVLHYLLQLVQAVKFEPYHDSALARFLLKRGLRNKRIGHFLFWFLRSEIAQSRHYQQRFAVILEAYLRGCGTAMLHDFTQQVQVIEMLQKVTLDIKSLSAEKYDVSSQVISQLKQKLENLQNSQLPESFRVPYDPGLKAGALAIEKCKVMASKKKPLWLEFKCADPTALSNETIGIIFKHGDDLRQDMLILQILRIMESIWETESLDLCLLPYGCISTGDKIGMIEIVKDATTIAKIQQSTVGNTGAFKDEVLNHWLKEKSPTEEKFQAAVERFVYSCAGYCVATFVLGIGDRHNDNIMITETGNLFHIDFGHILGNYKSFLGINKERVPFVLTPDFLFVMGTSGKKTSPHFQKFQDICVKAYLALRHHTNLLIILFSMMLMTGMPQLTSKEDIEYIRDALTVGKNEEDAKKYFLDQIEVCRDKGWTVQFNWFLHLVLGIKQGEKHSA

SMILES | experimentally determined binding constant Kd [1] | further results
COc1ccc(-c2nc(-c3ccc(F)cc3)c(-c3ccc(F)cc3)[nH]2)cc1O [Compound 9] | no observed binding | 
COc1ccc(Nc2nc(-c3ccc(Br)cc3)nc3ccccc23)cc1OC [Compound 10] | no observed binding | 
CC(C)n1nc(-c2cc(Cl)c(O)c(C3CC3)c2)c2c(N)ncnc21 [Compound 20] |  | Kd [1]: 120 nM
COc1ccc(-c2cnoc2-c2cc(OC)c(OC)c(OC)c2)cc1O [Compound 16] | no observed binding | 
COc1ccc(-c2cc(C(F)(F)F)n3ncc(C#N)c3n2)cc1OC [Compound 2] | no observed binding | PI3Kγ activity in vitro (biochemical assay), in words [1]: inactive in vitro
COc1ccc(-c2nc(CCl)c(C)o2)cc1OC [Compound 14] | no observed binding | 
COc1c(OCCCN2CCOCC2)ccc2c1N=C(NC(=O)c1cnc(N)nc1)N1CCN=C21 [copanlisib, Copanlisib] |  | inhibitory activity against PI3Kδ [2]: sub-nanomolar; IC50 [3]: 19.4 nM; inhibitory activity against PI3Kα [4]: sub-nanomolar
CC(C)n1nc(-c2cc(Cl)c(O)c(Cl)c2)c2c(N)ncnc21 [Compound 22] |  | Kd [1]: 13 nM; effect on viability at 100 nM ([3]; 100 nM concentration): neither 18 nor 22 caused a significant reduction in viability; IC50 [3]: 188 nM
COc1ccc(C(=O)Nc2ccc3ccccc3c2)cc1OC [Compound 8] | no observed binding | 
COc1ccc(-c2noc(-c3ccc(O)cc3)n2)cc1OC [Compound 13] | no observed binding | 
CC(C)n1nc(-c2cc(C3CC3)c(O)c(C3CC3)c2)c2c(N)ncnc21 [Compound 21] |  | Kd [1]: 290 nM

Now from value to compound, other results behind:

experimentally determined binding constant Kd [1] | SMILES | further results
no observed binding | COc1ccc(-c2nc(CN)no2)cc1OC [Compound 12] | 
no observed binding | COc1ccc(-c2cnc(N)cc2C)cc1OC [Compound 6] | 
no observed binding | COc1ccc(-c2cc(CCl)no2)cc1OC [Compound 7] | 
no observed binding | COc1ccc(-c2nnc(CCl)o2)cc1OC [Compound 11] | 
no observed binding | COc1ccc(-c2cc(C(F)F)n3ncc(C#N)c3n2)cc1OC [Compound 4] | PI3Kγ activity in vitro (biochemical assay), in words [1]: inactive in vitro
no observed binding | COc1ccc(-c2nnc(C(C)C)s2)cc1OC [Compound 5] | 
no observed binding | COc1ccc(-c2nc(-c3ccc(F)cc3)no2)cc1OC [Compound 3] | 
no observed binding | COc1ccc(Nc2ncccc2[N+](=O)[O-])cc1OC [Compound 15] | 
